{"source": "patent US20230285570A1", "about": "“THERAPEUTICALLY USEFUL CURE-PRO MOLECULES FOR E3 LIGASE MEDIATED DEGRADATION OF PROTEINS, AND METHODS OF MAKING AND USING THEM” (CORNELL UNIVERSITY, priority 2020, published 2023)", "format_in_all_cases": "cell-based", "key": {"BRD4 [1]": {"molecular_target": "T1, BRD4 (Homo sapiens, UniProt O60885)", "experiment": "CURE-PRO-mediated BRD4 degradation in HeLa cells, WES capillary electrophoresis (ProteinSimple)", "parameters": "endogenous in cells; host or cells: HeLa", "protocol": "All cell lines were purchased from ATCC or DSMZ and grown at 37° C. with 5% CO2. Human HeLa cells were cultured in complete growth medium (Dulbecco's modified Eagle's medium (DMEM) supplemented with 10% FBS); MCF7 cells were cultured in complete growth medium (Dulbecco's modified Eagle's medium (DMEM) supplemented with 10% FBS and 0.01 mg/ml human recombinant insulin (Sigma Aldrich); Namalwa and Ramos cells were cultured in complete growth medium (RPMI 1640 medium supplemented with 10% FBS); HCT116 and HT29 cells were cultured in complete growth medium (McCoy's 5a Medium supplemented with 10% FBS). For cellular degradation of BRD4 studies cells were seeded in a 12-well plate at 70-80% confluency, allowed to attach overnight, and incubated with the indicated compounds for the indicated time. When indicated, a 15-minute pretreatment with 10 μM pomalidomide, 10 μM VHL298, 10 μM Nutlin3a, 1 μM MG-132 or 1 μM Carfilzomib was performed before the addition of CURE-PROs. For washout studies, after CURE-PRO treatment, media was aspirated and incubated with complete medium for the indicated time before lysis.\nWES Simple analysis was performed on WES system (ProteinSimple-Biotechne) according to the manufacturer's instructions. Total protein concentrations of cell lysates were determined by the Pierce BCA kit (Thermo Fisher). 3 μL of 0.3 μg/μL of the protein lysate was loaded onto a 12- to 230-kDa WES assay plate (ProteinSimple) where 300 nL sample was withdrawn through a capillary, subjected to electrophoretic separation of proteins by size, and followed by the simultaneous, HRP-based detection of proteins using the Anti-Rabbit Detection Module (Proteinsimple: #DM-001). The electropherograms were checked then the automatic peak detection was manually corrected if it was required.\nHeLa cells (2.5×10^6) were treated for 4-24 hours with the compounds solubilized in DMSO. After 4 hours, indicated points were washed and cells were left in full growth media. Compounds were added at 10 μM each. Standardized protein samples were electrophoresed and imaged as described in the WES ProteinSimple section above. FIGS. 44 and 45 depict the time-dependence of CURE-PRO-mediated BRD4 degradation with the BRD-E52 ligand (FIG. 44) and BRD-E72 ligand (FIG. 45), both JQ1 derivatives comprising of boronic acid linkers, and the CRBN binding ligands (8046, 8047, and 8066), pomalidomide derivatives comprising diol linkers.\nHeLa cells (2.5×10^6) were treated for 24 hours with the compounds solubilized in DMSO. Compounds were added at 100 nM-10 μM each. Standardized protein samples were electrophoresed and imaged as described in the WES ProteinSimple section above. FIG. 46 depicts the concentration-dependence of CURE-PRO-mediated BRD4 degradation and the requirement for monomer dimerization."}, "caspase 3/7": {"system": "caspase 3/7", "experiment": "Caspase-Glo 3/7 assay, Namalwa cells", "settings": "1:1 with CRBN ligand 8047, Namalwa, 24 h", "protocol": "Caspase-glo® assay (Promega) was conducted following the manufacturer's recommendations. Cells were seeded at a density of 5000 cells/well in a white 96 well plates (Corning, #3917) in a total volume of 100 μl with respective monomers, combinations of BRD ligands together with E3 ligase ligands or vehicle control treatment. After a 24 h incubation, 100 μl of the […] substrate was added per well and luminescence was read on a Spectramax M5 (Molecular Devices).\nNamalwa cells (5×10^4) were treated for 24 hours with the compounds solubilized in DMSO. FIG. 57 is a bar graph depiction of fold increase of apoptosis assessed via caspase 3/7 activity using the Caspase-Glo assay (Promega) described above.\nMolm-13 (FIG. 76A) or Namalwa (FIG. 76B) cells (5×10^4) were treated for 24 hours with the compounds solubilized in DMSO in white 96 well plates (10 nM-10 μM solubilized in DMSO). FIG. 76 is a bar graph depiction of fold increase of apoptosis assessed via caspase 3/7 activity using the Caspase-Glo assay (Promega) described above."}, "Namalwa cells": {"system": "Namalwa cells", "experiment": "CellTiter-Glo cell viability, Namalwa cells", "settings": "co-dosed 1:1 with CRBN ligand 8047, Namalwa, 72 h, 10 nM-10 μM", "protocol": "CellTiter-Glo® 2.0 Cell Viability Assay (Promega) was carried out following the manufacturer's recommendations. Cells were seeded at a density of 1000 cells/well in a white 96 well plates (Corning, #3917) in a total volume of 100 μl with respective monomers, combinations of BRD ligands together with E3 ligase ligands or vehicle control treatment. After a 72 h incubation, 100 ul of the CellTiter-Glo® substrate was added per well and luminescence was read on a Spectramax M5 (Molecular Devices). Dose-response curves were generated using Graphpad Prism software.\nNamalwa cells (1×10^4) were treated for 72 hours with the compounds solubilized in DMSO. Compounds were added at 10 nM-10 μM each. Cellular viability was determined using the CellTiter-Glo® Luminescent Cell Viability Assay (Promega) described above. FIG. 56 depicts the CURE-PRO-mediated loss of cellular viability for the BRD-E72 monomer (JQ1 derivatives comprising of boronic acid linkers), and the CRBN ligand, 8047 (a pomalidomide derivative comprising diol linkers) combined in a 1:1 ratio."}, "BRD4 [2]": {"molecular_target": "T1, BRD4", "experiment": "CURE-PRO-mediated BRD4 degradation in HeLa cells, Western blot", "parameters": "endogenous in cells; host or cells: HeLa", "settings": "24 h", "how_it_was_run": "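HeLa cells (2.5×10^6) treated 24 h with DMSO-solubilized compounds, degrader pairs combined 1:1, at 1 nM-1 μM, 1-10 μM, 10 μM or 10 and 100 μM each depending on series. RIPA lysates (10-20 μg protein) run on SDS-PAGE and immunoblotted for BRD4 with ECL detection.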"}, "BRD4 [3]": {"molecular_target": "T1, BRD4", "experiment": "Summary of BRD4 degradation by CURE-PRO pairs, estimated from Western Blot or WES", "parameters": "endogenous in cells", "settings": "Table 1, aryl-boronic acid BRD4 ligand + 8047", "how_it_was_run": "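Namalwa, Ramos, HeLa, MCF7, HT29 or HCT116 cells treated 24 h with compounds in DMSO; RIPA lysates analysed by Western blot (ECL) or capillary WES immunodetection. Check mark denotes 30% to 70% or higher protein degradation.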"}, "CRBN": {"molecular_target": "T2, CRBN (Homo sapiens, UniProt Q96SW2)", "T2 construct": "endogenous in cells; host or cells: HeLa", "T2 sequence (Q96SW2 whole entry)": "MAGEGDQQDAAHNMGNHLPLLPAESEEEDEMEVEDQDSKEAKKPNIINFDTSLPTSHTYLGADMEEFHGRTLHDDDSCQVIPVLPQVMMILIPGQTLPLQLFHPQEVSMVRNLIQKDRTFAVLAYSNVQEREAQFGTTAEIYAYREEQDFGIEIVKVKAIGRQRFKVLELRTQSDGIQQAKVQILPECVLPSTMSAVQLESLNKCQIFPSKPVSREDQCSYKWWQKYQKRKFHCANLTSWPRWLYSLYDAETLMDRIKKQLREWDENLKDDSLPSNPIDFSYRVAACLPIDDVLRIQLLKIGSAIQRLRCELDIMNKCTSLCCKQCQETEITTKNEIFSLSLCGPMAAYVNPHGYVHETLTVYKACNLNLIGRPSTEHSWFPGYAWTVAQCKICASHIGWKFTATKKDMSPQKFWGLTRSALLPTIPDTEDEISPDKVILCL", "experiment": "CURE-PRO-mediated CRBN degradation in HeLa cells, Western blot", "settings": "24 h", "protocol": "Namalwa, Ramosm HeLa, MCF7, or HT29 HCT116 cells (2.5-3×10^6) were treated for 24 hours with the indicated compounds solubilized in DMSO. The cells were washed in ice-cold PBS and were then lysed in RIPA lysis buffer (150 mM NaCl, 5 mM EDTA, 1% NP-40, 0.5% sodium deoxycholate, 0.1% SDS, 50 mM Tris, pH 8.0.) with Roche protease inhibitor complete cocktail and phosphatase inhibitors (10 mM sodium fluoride, 10 mM sodium pyrophosphate, 1 mM sodium orthovanadate and 20 mM β-glycerophosphate). The total protein concentrations were determined by Bradford Protein Assay (Pierce) and 10-20 μg of protein was loaded onto 4-15% Tris-Glycine gradient gels (Biorad). After standard gel electrophoresis, the separated proteins were transferred to PVDF membrane by wet transfer. The immunoblots were then blocked for 1 hour in 5% skim milk in TBST or 5% BSA in TBST, according to manufacturer's instructions, before an overnight incubation at 4° C. with indicated antibodies and membranes. […] Signal was detected with ECL Western Blotting Substrate (Pierce) and X-ray film processed with a Konica SRX-101 X-ray film processor or captured by Bio-Rad's Chemidoc Imaging system. […]"}, "HCT116 cells": {"system": "HCT116 cells", "experiment": "MTT toxicity of E3 ligase CURE-PRO monomers, HCT116 cells", "settings": "monomer alone, HCT116, 10 nM-30 μM, 24 h", "protocol": "(§1) CURE-PRO ligands for the E3 ubiquitin ligases were assessed for toxicity by MTT assays as described above. CURE-PRO monomers (10 nM-30 μM) were solubilized in DMSO and added in triplicate to cells (1×10^5 cells/well) seeded in 96 well plates on the previous day. HCT116 (FIG. 105A), MCF7 (FIG. 105B), and HT29 cells (FIG. 105C) were treated with the CURE-PRO monomers for 24 h."}, "HT29 cells": {"system": "HT29 cells", "experiment": "MTT toxicity of E3 ligase CURE-PRO monomers, HT29 cells", "settings": "monomer alone, HT29, 10 nM-30 μM, 24 h", "protocol": "as §1"}}, "note": "Entries after “also recorded” stand apart in the source; their conditions may differ."}
{"smiles": "CCNC(=O)C[C@@H]1N=C(c2ccc(Cl)cc2)c2cc(-c3cccc(B(O)O)c3)ccc2-n2c(C)nnc21", "note": "[BRD-E72, (3-((4S)-6-(4-chlorophenyl)-4-(2-(ethylamino)-2-oxoethyl)-1-methyl-4H-benzo[f][1,2,4]triazolo[4,3-a][1,4]diazepin-8-yl)phenyl)boronic acid]", "values": [{"measurement": "sustained BRD4 degradation after drugs are washed out", "setting": "BRD4 [1]; co-dosed with 8047, 10 μM each, washed after 4 h", "result": "up to 8 h"}, {"measurement": "BRD4 degradation, time course", "setting": "BRD4 [1]; co-dosed with CRBN ligand 8047, HeLa, 10 μM each, 4-24 h", "result": "marked BRD4 degradation after 4 h"}, {"measurement": "caspase 3/7 activation", "setting": "caspase 3/7", "result": "demonstrates activation of caspase 3/7; also recorded: marked caspase activation"}, {"measurement": "loss of cellular viability versus monomer alone", "setting": "Namalwa cells", "result": "an increase in the loss of viability compared to monomer treatment alone; also recorded: marked loss in cell viability"}, {"measurement": "BRD4 degradation after pomalidomide preincubation", "setting": "BRD4 [2]; 1:1 with 8047, 10 μM, pomalidomide preincubated 15 min at equimolar concentration", "result": "inhibition of CURE-PRO-mediated BRD4 degradation"}, {"measurement": "BRD4 degradation", "setting": "BRD4 [2]; BRD ligand with pomalidomide (no 8047), HeLa, 10 μM", "result": "failed to induce BRD4 degradation"}, {"measurement": "BRD4 degradation", "setting": "BRD4 [2]; co-treated 1:1 with CRBN ligand 8047, HeLa, 10 μM each", "result": "CURE-PRO-mediated degradation of BRD4"}, {"measurement": "Degradation of BRD4, combination with CRBN ligand 8047", "setting": "BRD4 [3]", "result": "√ (A black check mark indicates efficacy of 30% to 70% or higher protein degradation)"}]}
{"smiles": "CC(C)(O)C(=O)C(=O)NCc1cccc2c1C(=O)N(C1CCC(=O)NC1=O)C2=O", "note": "(centres unmarked) [compound 8065]", "values": [{"measurement": "concentrations at which CRBN degradation is noted", "setting": "CRBN", "result": "10 to 100", "unit": "µM"}]}
{"smiles": "COc1ccc(C2=N[C@@H](c3ccc(Cl)cc3)[C@@H](c3ccc(Cl)cc3)N2C(=O)N2CCN(CCNC(=O)c3cccc(B(O)O)c3)C(=O)C2)c(OC(C)C)c1", "note": "[compound 8312, (3-((2-(4-((4S,5R)-4,5-bis(4-chlorophenyl)-2-(2-isopropoxy-4-methoxyphenyl)-4,5-dihydro-1H-imidazole-1-carbonyl)-2-oxopiperazin-1-yl)ethyl)carbamoyl)phenyl)boronic acid]", "values": [{"measurement": "loss of viability (MTT)", "setting": "HCT116 cells", "result": "loss of viability only noted at higher concentrations (30 μM); also recorded: Toxicity at higher concentrations"}, {"measurement": "loss of viability (MTT)", "setting": "HT29 cells", "result": "loss of viability only noted at higher concentrations (30 μM); also recorded: Toxicity at higher concentrations"}]}
